Source: US20130274174A1, “THERAPEUTIC COMBINATION OF DAPTOMYCIN AND PROTEIN SYNTHESIS INHIBITOR ANTIBIOTIC, AND METHODS OF USE” (priority 2011, published 2013)
Values after ≈ are worked out from the molar mass of the structure shown. Like-named read-outs stand apart in the source and are kept apart here.

Tests used:
S. aureus ATCC 33591 = experiment: microbe, parasite or virus in culture; type: cell-based, Staphylococcus aureus; conditions: Staphylococcus aureus
Procedure: (§1) S. aureus strains MW2 (NARSA collection clinical MRSA isolate, NRS123) and ATCC 33591 (MRSA strain from the American Type Culture Collection) were cultured on Mueller-Hinton II cation adjusted (MHA) medium in 90×90 mm square petri dishes. MHA containing ¼ of the MIC value of TR-700, TR-705, LZD, TIA, CLI, TET, or VAN, TMP/SMX throughout the plate and a continuous linear gradient of DAP across the plate was used to passage MW2. ATCC 33591 was passaged with ¼ of the MIC of a subset of these drugs (TR-700, TMP/SMX, and VAN). A DAP-only control passage group was included for both strains. DAP gradients were created by pouring two layers of media as previously described (Bryson, V., et al. 1952. Microbial selection. Science 116:45-51; Locke, J. B., et al., 2009. Antimicrob. Agents Chemother. 53:5265-5274). Following each passage the leading edge of growth (i.e., most resistant cells) was resuspended in phosphate buffered saline (PBS) to an absorbance of 0.30 OD600 and a 100 μl aliquot containing ˜3.0×10^7 CFU (colony-forming units) was spread on to the proceeding passage plate. The starting maximal DAP concentration was 2 μg/ml and was increased in two-fold increments when the leading edge of growth surpassed the half way point on the plate. A glycerol stock was made from the total cell population for each culture condition for each passage. Thirty serial passages were completed for each treatment group.

S. aureus MW2 (NRS123) = experiment: microbe, parasite or virus in culture; type: cell-based, Staphylococcus aureus; conditions: for MIC: Staphylococcus aureus
Procedure: as §1

`CN[C@H](CC(C)C)C(=O)N[C@H]1C(=O)N[C@@H](CC(N)=O)C(=O)N[C@H]2C(=O)N[C@H]3C(=O)N[C@H](C(=O)N[C@H](C(=O)O)c4cc(O)cc(O)c4-c4cc3ccc4O)[C@H](O)c3ccc(c(Cl)c3)Oc3cc2cc(c3O[C@@H]2O[C@H](CO)[C@@H](O)[C@H](O)[C@H]2O[C@H]2C[C@](C)(N)[C@H](O)[C@H](C)O2)Oc2ccc(cc2Cl)[C@H]1O` [VAN, vancomycin] was tested, and the MIC (S. aureus ATCC 33591; ATCC33591, passage 0, ATCC 33591 WT) was 2 µg/mL (≈ 1.38 µM), the MIC (S. aureus ATCC 33591; ATCC33591, passage 5, selection group DAP) was 4 µg/mL (≈ 2.76 µM) and the MIC (S. aureus ATCC 33591; ATCC33591, passage 5, selection group DAP + TMP/SMX) was 4 µg/mL. The MIC (S. aureus ATCC 33591; ATCC33591, passage 5, selection group DAP + TR-700) was 2 µg/mL, the MIC (S. aureus ATCC 33591; ATCC33591, passage 5, selection group DAP + VAN) was 4 µg/mL and the MIC (S. aureus ATCC 33591; ATCC33591, passage 10, selection group DAP) was 4 µg/mL (≈ 2.76 µM). The MIC (S. aureus ATCC 33591; ATCC33591, passage 10, selection group DAP + TMP/SMX) was 8 µg/mL, the MIC (S. aureus ATCC 33591; ATCC33591, passage 10, selection group DAP + TR-700) was 4 µg/mL and the MIC (S. aureus ATCC 33591; ATCC33591, passage 10, selection group DAP + VAN) was 4 µg/mL. It also gave an MIC (S. aureus ATCC 33591; ATCC33591, passage 15, selection group DAP) of 4 µg/mL (≈ 2.76 µM), an MIC (S. aureus ATCC 33591; ATCC33591, passage 15, selection group DAP + TMP/SMX) of 4 µg/mL and an MIC (S. aureus ATCC 33591; ATCC33591, passage 15, selection group DAP + TR-700) of 4 µg/mL. The MIC (S. aureus ATCC 33591; ATCC33591, passage 15, selection group DAP + VAN) was 4 µg/mL, the MIC (S. aureus ATCC 33591; ATCC33591, passage 20, selection group DAP) was 4 µg/mL (≈ 2.76 µM) and the MIC (S. aureus ATCC 33591; ATCC33591, passage 20, selection group DAP + TMP/SMX) was 4 µg/mL. For the same compound, the MIC (S. aureus ATCC 33591; ATCC33591, passage 20, selection group DAP + TR-700) was 4 µg/mL, the MIC (S. aureus ATCC 33591; ATCC33591, passage 20, selection group DAP + VAN) was 8 µg/mL and the MIC (S. aureus ATCC 33591; ATCC33591, passage 25, selection group DAP) was 4 µg/mL (≈ 2.76 µM). The MIC (S. aureus ATCC 33591; ATCC33591, passage 25, selection group DAP + TMP/SMX) was 4 µg/mL, the MIC (S. aureus ATCC 33591; ATCC33591, passage 25, selection group DAP + TR-700) was 4 µg/mL and the MIC (S. aureus ATCC 33591; ATCC33591, passage 25, selection group DAP + VAN) was 8 µg/mL. For the same compound, the MIC (S. aureus ATCC 33591; ATCC33591, passage 30, selection group DAP) was 4 µg/mL (≈ 2.76 µM), the MIC (S. aureus ATCC 33591; ATCC33591, passage 30, selection group DAP + TMP/SMX) was 4 µg/mL and the MIC (S. aureus ATCC 33591; ATCC33591, passage 30, selection group DAP + TR-700) was 2 µg/mL. For the same compound, the MIC (S. aureus ATCC 33591; ATCC33591, passage 30, selection group DAP + VAN) was 4 µg/mL, the MIC (S. aureus MW2 (NRS123); NRS123, passage 0, NRS123 WT) was 1 µg/mL (≈ 0.69 µM) and the MIC (S. aureus MW2 (NRS123); NRS123, passage 5, selection group DAP) was 2 µg/mL (≈ 1.38 µM). It also gave an MIC (S. aureus MW2 (NRS123); NRS123, passage 5, selection group DAP + CLI) of 4 µg/mL, an MIC (S. aureus MW2 (NRS123); NRS123, passage 5, selection group DAP + LZD) of 4 µg/mL and an MIC (S. aureus MW2 (NRS123); NRS123, passage 5, selection group DAP + TET) of 2 µg/mL. For the same compound, the MIC (S. aureus MW2 (NRS123); NRS123, passage 5, selection group DAP + TIA) was 2 µg/mL, the MIC (S. aureus MW2 (NRS123); NRS123, passage 5, selection group DAP + TMP/SMX) was 8 µg/mL and the MIC (S. aureus MW2 (NRS123); NRS123, passage 5, selection group DAP + TR-700) was 2 µg/mL. The MIC (S. aureus MW2 (NRS123); NRS123, passage 5, selection group DAP + TR-705) was 4 µg/mL, the MIC (S. aureus MW2 (NRS123); NRS123, passage 5, selection group DAP + VAN) was 4 µg/mL and the MIC (S. aureus MW2 (NRS123); NRS123, passage 10, selection group DAP) was 4 µg/mL (≈ 2.76 µM). The MIC (S. aureus MW2 (NRS123); NRS123, passage 10, selection group DAP + CLI) was 4 µg/mL, the MIC (S. aureus MW2 (NRS123); NRS123, passage 10, selection group DAP + LZD) was 8 µg/mL and the MIC (S. aureus MW2 (NRS123); NRS123, passage 10, selection group DAP + TET) was 2 µg/mL. It also gave an MIC (S. aureus MW2 (NRS123); NRS123, passage 10, selection group DAP + TIA) of 4 µg/mL, an MIC (S. aureus MW2 (NRS123); NRS123, passage 10, selection group DAP + TMP/SMX) of 8 µg/mL and an MIC (S. aureus MW2 (NRS123); NRS123, passage 10, selection group DAP + TR-700) of 2 µg/mL. For the same compound, the MIC (S. aureus MW2 (NRS123); NRS123, passage 10, selection group DAP + TR-705) was 2 µg/mL, the MIC (S. aureus MW2 (NRS123); NRS123, passage 10, selection group DAP + VAN) was 4 µg/mL and the MIC (S. aureus MW2 (NRS123); NRS123, passage 15, selection group DAP) was 8 µg/mL (≈ 5.52 µM). The MIC (S. aureus MW2 (NRS123); NRS123, passage 15, selection group DAP + CLI) was 8 µg/mL, the MIC (S. aureus MW2 (NRS123); NRS123, passage 15, selection group DAP + LZD) was 8 µg/mL and the MIC (S. aureus MW2 (NRS123); NRS123, passage 15, selection group DAP + TET) was 0.5 µg/mL. It also gave an MIC (S. aureus MW2 (NRS123); NRS123, passage 15, selection group DAP + TIA) of 4 µg/mL, an MIC (S. aureus MW2 (NRS123); NRS123, passage 15, selection group DAP + TMP/SMX) of 8 µg/mL and an MIC (S. aureus MW2 (NRS123); NRS123, passage 15, selection group DAP + TR-700) of 2 µg/mL. The MIC (S. aureus MW2 (NRS123); NRS123, passage 15, selection group DAP + TR-705) was 2 µg/mL, the MIC (S. aureus MW2 (NRS123); NRS123, passage 15, selection group DAP + VAN) was 8 µg/mL and the MIC (S. aureus MW2 (NRS123); NRS123, passage 20, selection group DAP) was 8 µg/mL (≈ 5.52 µM). For the same compound, the MIC (S. aureus MW2 (NRS123); NRS123, passage 20, selection group DAP + CLI) was 8 µg/mL, the MIC (S. aureus MW2 (NRS123); NRS123, passage 20, selection group DAP + LZD) was 8 µg/mL and the MIC (S. aureus MW2 (NRS123); NRS123, passage 20, selection group DAP + TET) was 1 µg/mL. For the same compound, the MIC (S. aureus MW2 (NRS123); NRS123, passage 20, selection group DAP + TIA) was 4 µg/mL, the MIC (S. aureus MW2 (NRS123); NRS123, passage 20, selection group DAP + TMP/SMX) was 8 µg/mL and the MIC (S. aureus MW2 (NRS123); NRS123, passage 20, selection group DAP + TR-700) was 2 µg/mL. It also gave an MIC (S. aureus MW2 (NRS123); NRS123, passage 20, selection group DAP + TR-705) of 2 µg/mL, an MIC (S. aureus MW2 (NRS123); NRS123, passage 20, selection group DAP + VAN) of 8 µg/mL and an MIC (S. aureus MW2 (NRS123); NRS123, passage 25, selection group DAP) of 4 µg/mL (≈ 2.76 µM). It also gave an MIC (S. aureus MW2 (NRS123); NRS123, passage 25, selection group DAP + CLI) of 8 µg/mL, an MIC (S. aureus MW2 (NRS123); NRS123, passage 25, selection group DAP + LZD) of 8 µg/mL and an MIC (S. aureus MW2 (NRS123); NRS123, passage 25, selection group DAP + TET) of 1 µg/mL. For the same compound, the MIC (S. aureus MW2 (NRS123); NRS123, passage 25, selection group DAP + TIA) was 2 µg/mL, the MIC (S. aureus MW2 (NRS123); NRS123, passage 25, selection group DAP + TMP/SMX) was 8 µg/mL and the MIC (S. aureus MW2 (NRS123); NRS123, passage 25, selection group DAP + TR-700) was 2 µg/mL. The MIC (S. aureus MW2 (NRS123); NRS123, passage 25, selection group DAP + TR-705) was 2 µg/mL, the MIC (S. aureus MW2 (NRS123); NRS123, passage 25, selection group DAP + VAN) was 8 µg/mL and the MIC (S. aureus MW2 (NRS123); NRS123, passage 30, selection group DAP) was 2 µg/mL (≈ 1.38 µM). It also gave an MIC (S. aureus MW2 (NRS123); NRS123, passage 30, selection group DAP + CLI) of 8 µg/mL, an MIC (S. aureus MW2 (NRS123); NRS123, passage 30, selection group DAP + LZD) of 2 µg/mL and an MIC (S. aureus MW2 (NRS123); NRS123, passage 30, selection group DAP + TET) of 1 µg/mL. The MIC (S. aureus MW2 (NRS123); NRS123, passage 30, selection group DAP + TIA) was 4 µg/mL, the MIC (S. aureus MW2 (NRS123); NRS123, passage 30, selection group DAP + TMP/SMX) was 8 µg/mL and the MIC (S. aureus MW2 (NRS123); NRS123, passage 30, selection group DAP + TR-700) was 2 µg/mL. It also gave an MIC (S. aureus MW2 (NRS123); NRS123, passage 30, selection group DAP + TR-705) of 2 µg/mL, an MIC (S. aureus MW2 (NRS123); NRS123, passage 30, selection group DAP + VAN) of 4 µg/mL and an MIC (S. aureus MW2 (NRS123); NRS123, read-out: DAP MIC by the end of the experiment (selection of DAP^ns strains), MW2, passaged with DAP alone or with co-selecting agent at ¼ MIC, CLSI breakpoint) of over 1 µg/mL. For the same compound, the “effect on preventing the emergence of DAP^ns” value (S. aureus MW2 (NRS123); co-selection at ¼ MIC, VAN: both backgrounds) was “had an effect on preventing the emergence of DAP^ns strains” and the DAP/VAN cross-resistance (S. aureus MW2 (NRS123); co-selection with VAN, both backgrounds) was “cross-resistance was observed”.
